Results on seven compounds are retold here after patent publication US20230099803A1, “OXAZOLIDINONE FOR TREATMENT OF INFECTIONS WITH MYCOBACTERIUM TUBERCULOSIS” (priority 2017, published 2023).

≈ marks a conversion by molar mass, not a printed value. Read-outs that look alike come from different tables or passages of the source.

The subject of assay [1] is Mycobacterium tuberculosis. Conditions: values marked with literature reference (^4,11 or ^15), cited from earlier work.
For assay [2], the system named is Enterococcus faecalis. Nature of the assay: MIC90 broth microdilution. In kind it is cell-based. As to conditions: ATCC19433, ATCC 19433, 35° C., 18 hours. Background: Dilution methods test growth across graded concentrations, often in twofold steps.
The subject of assay [3] is Staphylococcus aureus methicillin-sensitive. Nature of the assay: MIC90 broth microdilution. In kind it is cell-based. As to conditions: ATCC29213, ATCC 29213, 35° C., 18 hours.
Another assay concerns Mycobacterium abscessus. Nature of the assay: MIC90 broth microdilution. In kind it is cell-based. Conditions: for MIC90: Mycobacteroides abscessus, ATCC19977, 72 h, ATCC 19977, 30° C., 3 days.
Assay [4] has as its system Acinetobacter baumannii 6M-1b. Nature of the assay: MIC90 broth microdilution. In kind it is cell-based. As to conditions: 6M1B, environmental strain 6M-1b, 35° C., 18 hours.
Another assay relates to Pseudomonas aeruginosa. Nature of the assay: MIC90 broth microdilution. In kind it is cell-based. Conditions: for MIC90: Pseudomonas aeruginosa, PA14, 35° C., 18 hours.
Assay [5] concerns Acinetobacter baumannii ACBA. Nature of the assay: MIC90 broth microdilution. In kind it is cell-based. Conditions: patient isolate ACBA, 35° C., 18 hours.
The subject of assay [6] is Mycobacterium tuberculosis. Nature of the assay: MIC90 broth macrodilution. Conditions: H37Rv; 7H9 broth, fourteen days at 37° C.
Assay [7] deals with Acinetobacter baumannii ATCC 19606. Nature of the assay: MIC90 broth microdilution. In kind it is cell-based. Conditions: ATCC19606, strain ATCC 19606, 35° C., 18 hours.
A further assay deals with Klebsiella pneumoniae. Nature of the assay: MIC90 broth microdilution. Conditions: for MIC90: Klebsiella pneumoniae, ATCC35657, ATCC 35657, 35° C., 18 hours. In kind it is cell-based.
The next assay relates to Mycobacterium avium. Nature of the assay: MIC90 broth microdilution. In kind it is cell-based. As to conditions: for MIC90: Mycobacterium avium, 168 h, strain 104, seven days at 37° C.
Another assay has as its system Enterobacter cloacae. Nature of the assay: MIC90 broth microdilution. In kind it is cell-based. Conditions: for MIC90: Enterobacter cloacae, ATCC13047, ATCC 13047, 35° C., 18 hours.
Assay [8] has as its system methicillin-resistant Staphylococcus aureus ATCC 43300. Nature of the assay: MIC90 determination. In kind it is cell-based. As to conditions: ATCC43300, methicillin-resistant strain ATCC 43300.
The test system of assay [9] is methicillin-resistant Staphylococcus aureus. Nature of the assay: Checkerboard titration assay. As to conditions: T145 combined with doripenem, biapenem, faropenem and tebipenem; 1x to 1/16x MIC90. In kind it is cell-based.
The test system of assay [10] is Enterococcus faecalis. Nature of the assay: Minimum bactericidal concentration (MBC99.9). In kind it is cell-based. Conditions: up to 8 times MIC90.
Assay [11] has as its system Staphylococcus aureus.
For assay [12], the system named is Staphylococcus aureus. Nature of the assay: Minimum bactericidal concentration (MBC99.9). In kind it is cell-based. As to conditions: up to 8 times MIC90.
Assay [13] has as its system Mycobacterium tuberculosis. Nature of the assay: Minimum bactericidal concentration (MBC99.9). In kind it is cell-based.
In assay [14] the test system is methicillin-sensitive Staphylococcus aureus. Nature of the assay: Checkerboard titration assay. Conditions: T145 combined with doripenem, biapenem, faropenem and tebipenem; 1x to 1/16x MIC90. In kind it is cell-based.
The subject of assay [15] is Enterococcus faecalis. Nature of the assay: Checkerboard titration assay. In kind it is cell-based. As to conditions: T145 combined with doripenem, biapenem, faropenem and tebipenem; 1x to 1/16x MIC90.
Assay [16] relates to Enterococcus faecalis.
The subject of assay [17] is Mycobacterium tuberculosis. Nature of the assay: Checkerboard titration assay. In kind it is cell-based. Conditions: T145 combined with isoniazid or rifampicin. The text has this:
The inventors also evaluated if any drug-drug interaction existed between T145 and isoniazid or rifampicin, two drugs that comprise the backbone of tuberculosis treatment today, against Mycobacterium tuberculosis using the checkerboard assay as described above. Any antagonism or synergy between T145 and isoniazid or rifampicin is not observed, and therefore that activity of T145 against Mycobacterium tuberculosis is indifferent to that of isoniazid or rifampicin.
This assay is a modification of the broth dilution assay and was carried out as described. In summary, each well containing 10^5 CFU received two drugs each in two fold dilutions below their respective MIC90. The suspensions are incubated at 37° C. and growth was evaluated as described above. Fractional Inhibitory Concentration (FIC) of a drug in a combination that inhibits bacterial growth is the concentration of the drug in the well divided by MIC90 of the drug if used alone. The sum of FIC of each drug in the combination is the FIC index. In each well where bacterial growth was absent, FIC index was calculated and an average FIC index was determined. Drug-drug antagonism was inferred if average FIC index is >2, indifference if 0.5-2.0 and synergy if ≤ 0.5.

For assay [18], the system named is Staphylococcus aureus. Conditions: general statement on linezolid; cited from earlier work.
[19] abbreviates: Acinetobacter baumannii, read-out: MIC90.

In general, MIC90 refers to the lowest concentration that inhibits either 90% of growth or 90% of the strains tested, depending on the study. Consider `C[C@@H](O)[C@H]1C(=O)N2C(C(=O)O)=C(S[C@@H]3CN[C@H](CNS(N)(=O)=O)C3)[C@H](C)[C@H]12` [Doripenem], for which the MIC90 in assay [1] was 2.5-5.0 ^15 µg/ml; against Enterococcus faecalis [2] it was 0.25 to 0.5 µg/mL (≈ 0.595 to 1.19 µM); in [3], 0.003 to 0.007 µg/mL (≈ 0.00713 to 0.0166 µM).
`C[C@@H](O)[C@H]1C(=O)N2C(C(=O)O)=C(S[C@@H]3CN[C@H](C(=O)N(C)C)C3)[C@H](C)[C@H]12` [Meropenem]: the MIC90 with Mycobacterium abscessus was greater than 64 µg/mL; in assay [4] it was 1 to 2 µg/mL (≈ 2.61 to 5.22 µM); in the assay on Pseudomonas aeruginosa it was 0.25 to 0.5 µg/mL (≈ 0.652 to 1.3 µM); in [5] (setting [19]), greater than 64 µg/mL; in [5] it was greater than 64 µg/mL; in assay [6], 4 to 8 µg/mL. For the same compound, the MIC90 in assay [7] is greater than 64 µg/mL; in the assay with Klebsiella pneumoniae, less than 0.06 µg/mL; in the assay on Mycobacterium avium, greater than 64 µg/mL; in the assay with Enterococcus faecalis [2], 4 to 8 µg/mL (≈ 10.4 to 20.9 µM); in [3], 0.06 to 0.13 µg/mL (≈ 0.156 to 0.339 µM); in the assay with Enterobacter cloacae, 0.13 to 0.25 µg/mL (≈ 0.339 to 0.652 µM).
In the case of `C[C@@H](O)[C@H]1C(=O)N2C(C(=O)O)=C(SC3CN(C4=NCCS4)C3)[C@H](C)[C@H]12` [Tebipenem], the MIC90 in assay [1] was 1.25-2.5 ^15 µg/ml; against Enterococcus faecalis [2] it was 0.25 to 0.5 µg/mL (≈ 0.652 to 1.3 µM); in assay [3] it was 0.03 to 0.06 µg/mL (≈ 0.0782 to 0.156 µM).
As for `C[C@@H](O)[C@H]1C(=O)N2C(C(=O)[O-])=C(SC3Cn4cnc[n+]4C3)[C@H](C)[C@H]12` (stereo partly shown) [Biapenem], the MIC90 in assay [1] was 2.5-5.0 ^15 µg/ml; in the assay with Enterococcus faecalis [2] it was 0.25 to 0.5 µg/mL (≈ 0.713 to 1.43 µM); in [3], 0.007 to 0.015 µg/mL (≈ 0.02 to 0.0428 µM).
What is called MBC is the lowest tested concentration that kills the bacteria rather than only halting them. Read a low MBC as more potent killing. For the compound `CC(=O)NC[C@H]1CN(c2ccc3c(c2)Oc2ccccc2O3)C(=O)O1` [T145, N-(((S)-3-(dibenzo[b,e][1,4]dioxin-7-yl)-2-oxooxazolidin-5-yl)methyl)acetamide], the MIC90 in assay [8] was 0.5 to 1 µg/mL (≈ 1.47 to 2.94 µM); with Mycobacterium abscessus, greater than 64 µg/mL; in assay [4] it was 0.25 to 0.5 µg/mL (≈ 0.735 to 1.47 µM); against Pseudomonas aeruginosa it was greater than 64 µg/mL; in [5] (setting [19]), greater than 64 µg/mL; in [5], greater than 64 µg/mL. Further, the MIC90 in [6] was 0.5 to 1.0 µg/mL; in [7] it was 32 to 64 µg/mL (≈ 94 to 188 µM); against Klebsiella pneumoniae, greater than 64 µg/mL; against Mycobacterium avium it was greater than 64 µg/mL; in the assay on Enterococcus faecalis [2], 0.25 to 0.5 µg/mL (≈ 0.735 to 1.47 µM); in [3] it was 0.5 to 1 µg/mL (≈ 1.47 to 2.94 µM). For the same compound, the MIC90 in the assay on Enterobacter cloacae was greater than 64 µg/mL. For the same compound, the “drug-drug interaction (synergy, indifference or antagonism)” value (in assay [9]; in assay [14]; in the assay with Enterococcus faecalis [15]; in assay [17]) was “indifferent” each time. The “bactericidal or bacteriostatic activity” value is “bacteriostatic” in the assay on Enterococcus faecalis [10]; “bacteriostatic” in the assay on Staphylococcus aureus [12]; “bactericidal” in assay [13] (1, 2, 4 and 8 times MIC90). Besides, the “selection of spontaneous resistant mutants” value with Staphylococcus aureus [11] and with Enterococcus faecalis [16] was “did not form classical distinct single colonies” in each case. Further, the “antimicrobial activity (in words)” value in the assay with Mycobacterium abscessus, with Pseudomonas aeruginosa, in the assay on Klebsiella pneumoniae, in the assay with Mycobacterium avium and with Enterobacter cloacae was “no activity” in each case. The same compound gave a minimum bactericidal concentration (MBC) in assay [13] (Mycobacterium tuberculosis, concentration at which 99.9% of bacilli are killed) of 2 µg/mL (≈ 5.88 µM).
Regarding `CC(=O)NC[C@H]1CN(c2ccc(N3CCOCC3)c(F)c2)C(=O)O1` [Linezolid], the “bactericidal or bacteriostatic activity” value in the assay with Staphylococcus aureus [18] is on record as “bacteriostatic”. For the same compound, the MIC90 in assay [1] was 0.2-2.0 ^4,11 µg/ml; in assay [1] (listed as linezolid), 0.5 to 2.0 µg/mL; in [4] it was 0.25 to 0.5 µg/mL (≈ 0.741 to 1.48 µM); against Pseudomonas aeruginosa, greater than 64 µg/mL; in assay [5] (setting [19]), greater than 64 µg/mL; in assay [5], greater than 64 µg/mL. Besides, the MIC90 is greater than 64 µg/mL in [7]; 16 to 32 µg/mL (≈ 47.4 to 94.9 µM) in the assay on Klebsiella pneumoniae; 1 to 2 µg/mL (≈ 2.96 to 5.93 µM) against Enterococcus faecalis [2]; 1 to 2 µg/mL (≈ 2.96 to 5.93 µM) in assay [3]; greater than 64 µg/mL in the assay with Enterobacter cloacae.
As to `C[C@@H](O)[C@H]1C(=O)N2C(C(=O)O)=C([C@H]3CCCO3)S[C@H]12` [Faropenem], the values for the MIC90 (in assay [1]; with Enterococcus faecalis [2]; in assay [3]) were 2.5-5.0 ^15 µg/ml, 0.25 to 0.5 µg/mL (≈ 0.876 to 1.75 µM) and 0.015 to 0.03 µg/mL (≈ 0.0526 to 0.105 µM), respectively.
